Results from US20240307319A1, “IONIZABLE LIPID MOLECULE, PREPARATION METHOD THEREFOR, AND APPLICATION THEREOF IN PREPARATION OF LIPID NANOPARTICLE” (IMMORNA (HANGZHOU) BIOTECHNOLOGY CO., LTD., priority 2021, published 2024).

Test system: BHK cells
Test: Protein in vitro expression ability of eGFP mRNA lipid nanoparticle compositions in BHK cells by flow cytometer
Type: cell-based
Details: 24-hour co-incubation, MC3 LNP without mRNA set as 0; for Fluorescent protein expression rate (0.1 μg): 0.1 μg LNP composition with eGFP mRNA; for Fluorescent protein expression rate (0.5 μg): 0.5 μg LNP composition with eGFP mRNA
Procedure: BHK cells were from ATCC and maintained at 37° C. under 5% CO2 in Dulbecco's modified Eagle medium (HyClone) supplemented with 10% fetal bovine serum (HyClone). 0.1 μg or 0.5 μg of the lipid nanoparticle composition prepared by the ionizable lipid compound of the invention or the commercial MC3 nanoparticle composition was co-incubated with the BHK cells to deliver the mRNA nucleic acid encoding the enhanced green fluorescent protein contained therein into the BHK cells to express the corresponding protein. After 24-hour co-incubation, the cells were digested with trypsin and collected, and signal intensity of intracellular green fluorescent protein was collected using a flow cytometer. Analysis of relative protein expression rates was performed using a cell group to which the commercial MC3 nanoparticle composition not containing mRNA encoding enhanced green fluorescent protein was added as a control.
The fluorescence intensity obtained after the commercial MC3 nanoparticle composition not containing mRNA encoding enhanced green fluorescent protein was co-incubated with cells is set as the base point, with the green fluorescent protein expression rate being 0.

| SMILES | Fluorescent protein expression rate (0.1 μg) [%] | Fluorescent protein expression rate (0.5 μg) [%] |
| --- | --- | --- |
| CCCCC/C=C\C/C=C\CCCCCCCCC(CCCCCCCC/C=C\C/C=C\CCCCC)OC(=O)CCCN(C)C [MC3, Dlin-MC3-DMA] | 95.87 | 99.99 |
| CCCCCCCCCOC(=O)CCCCCCCOc1ccc(OCCCCCCCC(=O)OCCCCCCCCC)c(COC(=O)CCCN(C)C)c1 [Compound I] | 82.60 | 93.51 |
